Experimental data published in PubChem BioAssay (NCI).
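GI50 = concentration required for 50% inhibition of growth. At the TGI there is no net growth.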

Experiments:
Experiment in all cases: inhibition of tumour cell growth, NCI panel, 384-well format
BT-549 breast = system: BT-549 breast
SK-MEL-28 melanoma = system: SK-MEL-28 melanoma
RPMI-8226 leukemia = system: RPMI-8226 leukemia
HL-60(TB) leukemia = system: HL-60(TB) leukemia
NCI/ADR-RES ovarian = system: NCI/ADR-RES ovarian
SK-OV-3 ovarian = system: SK-OV-3 ovarian
SNB-75 CNS = system: SNB-75 CNS
SW-620 colon = system: SW-620 colon
T-47D breast = system: T-47D breast
KM12 colon = system: KM12 colon
OVCAR-3 ovarian = system: OVCAR-3 ovarian
SK-MEL-5 melanoma = system: SK-MEL-5 melanoma
HCT-116 colon = system: HCT-116 colon
HCT-15 colon = system: HCT-15 colon
LOX IMVI melanoma = system: LOX IMVI melanoma
RXF 393 renal = system: RXF 393 renal
MDA-MB-231 breast = system: MDA-MB-231 breast
HS 578T breast = system: HS 578T breast
NCI-H322M lung = system: NCI-H322M lung
NCI-H522 lung = system: NCI-H522 lung
U251 glioblastoma = system: U251 glioblastoma
PC-3 prostate = system: PC-3 prostate
NCI-H460 NSCLC = system: NCI-H460 NSCLC
CAKI-1 renal = system: CAKI-1 renal
MALME-3M melanoma = system: MALME-3M melanoma
UACC-257 melanoma = system: UACC-257 melanoma
A549 NSCLC = system: A549 NSCLC
SF-268 CNS = system: SF-268 CNS
MDA-MB-435 melanoma = system: MDA-MB-435 melanoma
A498 renal = system: A498 renal
HCC-2998 colon = system: HCC-2998 colon
HT29 colon = system: HT29 colon
SF-539 CNS = system: SF-539 CNS
EKVX NSCLC = system: EKVX NSCLC

## Cc1cccc(-c2nn3c(c2-c2ccnc4ccc(C(N)=O)cc24)CCC3)n1
BT-549 breast
  GI50: 2.41 µM
  TGI: 5.7 µM
SK-MEL-28 melanoma
  GI50: 6.9 µM
  TGI: 19.7 µM
RPMI-8226 leukemia
  GI50: 1.74 µM
  TGI: 3.13 µM
HL-60(TB) leukemia
  GI50: 2.08 µM
  TGI: 3.57 µM
NCI/ADR-RES ovarian
  GI50: 2.17 µM
  TGI: 4.48 µM
SK-OV-3 ovarian
  GI50: 3.17 µM
  TGI: 10.4 µM
SNB-75 CNS
  GI50: 2.52 µM
  TGI: 11.3 µM
SW-620 colon
  GI50: 5.1 µM
  TGI: 15.6 µM
T-47D breast
  GI50: 3.64 µM
  TGI: 16.8 µM
KM12 colon
  GI50: 2.47 µM
  TGI: 6.04 µM
OVCAR-3 ovarian
  GI50: 2.15 µM
  TGI: 3.96 µM
SK-MEL-5 melanoma
  GI50: 2.55 µM
  TGI: 6.56 µM
HCT-116 colon
  GI50: 3.65 µM
  TGI: 12.3 µM
HCT-15 colon
  GI50: 2.97 µM
  TGI: 10.6 µM
LOX IMVI melanoma
  GI50: 2.77 µM
  TGI: 7.47 µM
RXF 393 renal
  GI50: 2.02 µM
  TGI: 4.6 µM
MDA-MB-231 breast
  GI50: 4.81 µM
  TGI: 16.6 µM
HS 578T breast
  GI50: 1.74 µM
  TGI: 3.65 µM
NCI-H322M lung
  GI50: 3.86 µM
  TGI: 16.6 µM
NCI-H522 lung
  GI50: 1.8 µM
  TGI: 4.1 µM
U251 glioblastoma
  GI50: 2.65 µM
  TGI: 8.58 µM
PC-3 prostate
  GI50: 3.64 µM
  TGI: 11.8 µM
NCI-H460 NSCLC
  GI50: 2.37 µM
  TGI: 5.92 µM
CAKI-1 renal
  GI50: 3.9 µM
  TGI: 14.1 µM
MALME-3M melanoma
  GI50: 5.57 µM
  TGI: 16.4 µM
UACC-257 melanoma
  GI50: 6.22 µM
  TGI: 19.7 µM
A549 NSCLC
  GI50: 3.93 µM
  TGI: 14.3 µM
SF-268 CNS
  GI50: 3.05 µM
  TGI: 9.5 µM
MDA-MB-435 melanoma
  GI50: 1.95 µM
  TGI: 3.83 µM
A498 renal
  GI50: 3.34 µM
  TGI: 12 µM
HCC-2998 colon
  GI50: 3.78 µM
  TGI: 13.2 µM
HT29 colon
  GI50: 2.37 µM
  TGI: 6.01 µM
SF-539 CNS
  GI50: 2.44 µM
  TGI: 5.39 µM
EKVX NSCLC
  GI50: 3.92 µM
  TGI: 12.8 µM
